Our source for the Ki values is patent US12559529B2, “NPY2 receptor agonists” (Boehringer Ingelheim International GmbH, priority 2019, dated 2026).

This test has as its target T1, Human Neuropeptide Y2 Receptor (Homo sapiens, UniProt P49146).
T1 construct: purchased CHEMICON HTS066M
T1 sequence (P49146 1-381): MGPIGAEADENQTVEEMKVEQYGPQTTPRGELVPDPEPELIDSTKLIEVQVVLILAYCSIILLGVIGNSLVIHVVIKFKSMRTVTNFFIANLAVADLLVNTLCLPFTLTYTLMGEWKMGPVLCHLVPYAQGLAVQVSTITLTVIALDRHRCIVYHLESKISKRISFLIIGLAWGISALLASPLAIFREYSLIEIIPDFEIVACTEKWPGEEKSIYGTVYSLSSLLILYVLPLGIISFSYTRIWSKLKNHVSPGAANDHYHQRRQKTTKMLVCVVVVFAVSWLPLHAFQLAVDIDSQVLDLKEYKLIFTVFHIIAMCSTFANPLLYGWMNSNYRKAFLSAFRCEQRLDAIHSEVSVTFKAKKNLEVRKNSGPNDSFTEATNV
Nature of the test: Radioligand binding competition assay (RLB). Conditions: Table 3; human 125I-PYY (1-36) 0.02 nM, Y2 receptor membranes; read-out: Ki. Put shortly:
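Peptide dilutions made in pH 7.4 HEPES assay buffer with 0.2% ovalbumin; human Y2 receptor membranes added at 0.5 μg protein/well; plates shaken 2 h at room temperature; reaction stopped by vacuum filtration onto PEI-treated GF/C filters with ice-cold high-salt washes; radioactivity counted by scintillation.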

`CC(C)CC(=O)N[C@@H](C)C(=O)N1CCC[C@H]1C(=O)N[C@@H](CCC(=O)O)C(=O)N[C@@H](CCCCNC(=O)COCCOCCNC(=O)COCCOCCNC(=O)CC[C@H](NC(=O)CCCCCCCCCCCCCCCCC(=O)O)C(=O)O)C(=O)N1CCC[C@H]1C(=O)N[C@@H](CCC(=O)O)C(=O)N[C@@H](CCC(=O)O)C(=O)N[C@@H](C)C(=O)N[C@@H](C)C(=O)N[C@@H](CCC(=O)O)C(=O)N1CCC[C@H]1C(=O)N[C@@H](CCC(=O)O)C(=O)N[C@@H](CCC(=O)O)C(=O)N[C@@H](CC(C)C)C(=O)N[C@@H](CCC(N)=O)C(=O)N[C@@H](CCCNC(=N)N)C(=O)N[C@@H](Cc1ccc(O)cc1)C(=O)N[C@@H](Cc1ccc(O)cc1)C(=O)N[C@H](C(=O)N[C@@H](CO)C(=O)N[C@@H](CC(C)C)C(=O)N[C@@H](CCCNC(=N)N)C(=O)N[C@@H](Cc1c[nH]cn1)C(=O)N[C@@H](Cc1ccc(O)cc1)C(=O)N[C@@H](Cc1ccc(O)cc1)C(=O)N[C@@H](CC(N)=O)C(=O)N[C@@H](Cc1c[nH]c2ccccc12)C(=O)N[C@@H](CC(C)C)C(=O)N[C@H](C(=O)N[C@@H](CCCNC(=N)N)C(=O)N[C@@H](CCC(N)=O)C(=O)N[C@@H](CCCNC(=N)N)C(=O)N[C@@H](Cc1ccc(O)cc1)C(N)=O)[C@@H](C)O)C(C)C` [Compound 223, N{alpha-4}-(3-methylbutanoyl)-N{epsilon-7}-[2-(2-{2-[2-(2-{2-[(4S)-4-carboxy-4-(17-carboxyheptadecanamido)butanamido]ethoxy}ethoxy)acetamido]ethoxy}ethoxy)acetamido]-[4A,7K,9E,11A,13E,18Q,22V,28Y,30W,31L]hPYY (4-36)]: the inhibition constant (Ki) (commonly a measure of affinity in units of concentration, obtained from inhibition or displacement) was determined as 4.77 nM.
Next, `CC(C)CC(=O)N[C@@H](C)C(=O)N1CCC[C@H]1C(=O)N[C@@H](CCC(=O)O)C(=O)N[C@@H](CCCCNC(=O)COCCOCCNC(=O)COCCOCCNC(=O)CC[C@H](NC(=O)CCCCCCCCCCCCCCCCC(=O)O)C(=O)O)C(=O)N1CCC[C@H]1C(=O)N[C@@H](CCC(=O)O)C(=O)N[C@@H](CCC(=O)O)C(=O)N[C@@H](CC(=O)O)C(=O)N[C@@H](C)C(=O)N[C@@H](CO)C(=O)N1CCC[C@H]1C(=O)N[C@@H](CCC(=O)O)C(=O)N[C@@H](CCC(=O)O)C(=O)N[C@@H](CC(C)C)C(=O)N[C@@H](CCC(N)=O)C(=O)N[C@@H](CCCNC(=N)N)C(=O)N[C@@H](Cc1ccc(O)cc1)C(=O)N[C@@H](Cc1ccc(O)cc1)C(=O)N[C@H](C(=O)N[C@@H](CO)C(=O)N[C@@H](CC(C)C)C(=O)N[C@@H](CCCNC(=N)N)C(=O)N[C@@H](Cc1c[nH]cn1)C(=O)N[C@@H](CCC(N)=O)C(=O)N[C@@H](Cc1ccc(O)cc1)C(=O)N[C@@H](CC(N)=O)C(=O)N[C@@H](Cc1c[nH]c2ccccc12)C(=O)N[C@@H](CC(C)C)C(=O)N[C@H](C(=O)N[C@@H](CCCNC(=N)N)C(=O)N[C@@H](CCC(N)=O)C(=O)N[C@@H](CCCNC(=N)N)C(=O)N[C@@H](Cc1ccc(O)cc1)C(N)=O)[C@@H](C)O)C(C)C` [Compound 187, N{alpha-4}-(3-methylbutanoyl)-N{epsilon-7}-[2-(2-{2-[2-(2-{2-[(4S)-4-carboxy-4-(17-carboxyheptadecanamido)butanamido]ethoxy}ethoxy)acetamido]ethoxy}ethoxy)acetamido]-[4A,7K,9E,18Q,22V,27Q,28Y,30W,31L]hPYY (4-36)]: 2.76 nM.
